In US9593108B2, “Compounds and methods for antiviral treatment” (PTC Therapeutics, Inc., priority 2009, dated 2017) one finds IC50 and melting point data, which are given here for 25 molecules.

For orientation: pIC50 means the negative decadic logarithm of the IC50, by convention in mol/L. Low values mean a large IC50, high ones a small IC50. Broadly, the melting point is the temperature, or range, at which the solid turns liquid.

Data set [1] relates to HCV replicon RNA (GenBank Accession No. AJ242654). Briefly: HCV Replicon Assay (replicon RNA reduction and/or Fluc reporter signal). The data set is classed as cell-based, Hepatitis C virus. As to conditions: Hepatitis C virus, 72 h, replicon-containing cells cultured with test compound for up to 3 days. The procedure, abridged:
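IC50 values mostly reflect the drop in replicon RNA, though Fluc reporter signal may also be used. Compound incubated with cells carrying the bicistronic replicon for as long as 3 days; interferon served as positive control.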
(In antiviral work, replicon cells carry a viral genome segment that copies itself.)

pIC50: −log10 of the molar value. Where only a bound is given, the exact number is not on record here.

Take `CC(C)(C)NS(=O)(=O)c1ccc(-c2c(C#N)c3cc(C(F)(F)F)cnc3n2-c2ccccn2)cc1` [Cpd 336, N-tert-butyl-4-[3-cyano-1-(pyridin-2-yl)-5-(trifluoromethyl)-1H-pyrrolo[2,3-b]pyridin-2-yl]benzenesulfonamide]: the melting point was in the range of 227 to 230 °C. In data set [1], this molecule showed a pIC50 of 5.70 to 6.30.
The molecule `CC(C)(C)NS(=O)(=O)c1ccc(-c2c(C#N)c3cc(C(F)(F)F)cnc3n2-c2ccccc2)cc1` [Cpd 337, N-tert-butyl-4-[3-cyano-1-phenyl-5-(trifluoromethyl)-1H-pyrrolo[2,3-b]pyridin-2-yl]benzenesulfonamide] registered a melting point of 206 to 208 °C. Also, the pIC50 in data set [1] is 5.70 to 6.30.
In the same order, the values of `Cc1nc(-c2c(C#N)c3cc(C(F)(F)F)cnc3n2C2CCC2)ccc1S(=O)(=O)N[C@@H](C)C(F)(F)F` [Cpd 338, 6-[3-cyano-1-cyclobutyl-5-(trifluoromethyl)-1H-pyrrolo[2,3-b]pyridin-2-yl]-2-methyl-N-[(2S)-1,1,1-trifluoropropan-2-yl]pyridine-3-sulfonamide] are 162 to 165 °C and above 6.30.
As to `C[C@H](NS(=O)(=O)c1ccc(-c2c(C#N)c3cc(Br)cnc3n2-c2ncccn2)nc1)C(F)(F)F` [Cpd 339, 6-[5-bromo-3-cyano-1-(pyrimidin-2-yl)-1H-pyrrolo[2,3-b]pyridin-2-yl]-N-[(2S)-1,1,1-trifluoropropan-2-yl]pyridine-3-sulfonamide], the melting point was 223 to 225 °C. In data set [1], the pIC50 is above 6.30.
As to `C[C@H](NS(=O)(=O)c1ccc(-c2c(C#N)c3cc(Br)cnc3n2-c2cnccn2)nc1)C(F)(F)F` [Cpd 340, 6-[5-bromo-3-cyano-1-(pyrazin-2-yl)-1H-pyrrolo[2,3-b]pyridin-2-yl]-N-[(2S)-1,1,1-trifluoropropan-2-yl]pyridine-3-sulfonamide], the melting point was in the range of 247 to 248 °C. In data set [1], this molecule had a pIC50 above 6.30.
In the same order, the values of `Cc1cnc2c(c1)c(C(N)=O)c(-c1ccc(S(=O)(=O)NC(C)(C)C(F)(F)F)cc1)n2C1CCC1` [Cpd 341, 1-cyclobutyl-5-methyl-2-{4-[(1,1,1-trifluoro-2-methylpropan-2-yl)sulfamoyl]phenyl}-1H-pyrrolo[2,3-b]pyridine-3-carboxamide] are 235 to 237 °C and above 6.30.
Turning to `C[C@H](NS(=O)(=O)c1ccc(-c2c(C#N)c3cc(C4CC4)cnc3n2-c2cnccn2)nc1)C(F)(F)F` [Cpd 344, 6-[3-cyano-5-cyclopropyl-1-(pyrazin-2-yl)-1H-pyrrolo[2,3-b]pyridin-2-yl]-N-[(2S)-1,1,1-trifluoropropan-2-yl]pyridine-3-sulfonamide], the melting point is 219 to 221 °C. Moreover, in data set [1], the pIC50 is above 6.30.
`Cc1cnc2c(c1)c(C#N)c(-c1ccc(S(=O)(=O)N[C@@H](C)C(F)(F)F)cn1)n2-c1ncccn1` [Cpd 345, 6-[3-cyano-5-methyl-1-(pyrimidin-2-yl)-1H-pyrrolo[2,3-b]pyridin-2-yl]-N-[(2S)-1,1,1-trifluoropropan-2-yl]pyridine-3-sulfonamide] returned a melting point of 221 to 223 °C. Besides, the pIC50 in data set [1] was above 6.30.
`Cc1cnc2c(c1)c(C#N)c(-c1ccc(S(=O)(=O)N[C@@H](C)C(F)(F)F)cn1)n2-c1ccccn1` [Cpd 346, 6-[3-cyano-5-methyl-1-(pyridin-2-yl)-1H-pyrrolo[2,3-b]pyridin-2-yl]-N-[(2S)-1,1,1-trifluoropropan-2-yl]pyridine-3-sulfonamide] came in with a melting point of 165 to 167 °C. The pIC50 in data set [1] was above 6.30.
In the same order, the values of `Cc1cnc2c(c1)c(C#N)c(-c1ccc(S(=O)(=O)N[C@@H](C)C(F)(F)F)cn1)n2-c1cccnc1` [Cpd 347, 6-[3-cyano-5-methyl-1-(pyridin-3-yl)-1H-pyrrolo[2,3-b]pyridin-2-yl]-N-[(2S)-1,1,1-trifluoropropan-2-yl]pyridine-3-sulfonamide] are 205 to 207 °C and above 6.30.
The molecule `Cc1cnc2c(c1)c(C#N)c(-c1ccc(S(=O)(=O)N[C@@H](C)C(F)(F)F)cn1)n2-c1ccccc1` [Cpd 348, 6-(3-cyano-5-methyl-1-phenyl-1H-pyrrolo[2,3-b]pyridin-2-yl)-N-[(2S)-1,1,1-trifluoropropan-2-yl]pyridine-3-sulfonamide] gave a melting point of 220 to 222 °C. Moreover, in data set [1], the pIC50 is above 6.30.
For `Cc1cnc2c(c1)c(C#N)c(-c1ccc(S(=O)(=O)N[C@@H](C)C(F)(F)F)cn1)n2-c1cnccn1` [Cpd 349, 6-[3-cyano-5-methyl-1-(pyrazin-2-yl)-1H-pyrrolo[2,3-b]pyridin-2-yl]-N-[(2S)-1,1,1-trifluoropropan-2-yl]pyridine-3-sulfonamide], in that order: 220 to 222 °C and above 6.30.
As for `CN(Cc1ccccc1)c1cnc2c(c1)c(C#N)c(-c1ccc(S(=O)(=O)NC(C)(C)C)cc1)n2C1CCC1` [Cpd 351, 4-{5-[benzyl(methyl)amino]-3-cyano-1-cyclobutyl-1H-pyrrolo[2,3-b]pyridin-2-yl}-N-tert-butylbenzenesulfonamide], the melting point is 168 to 171 °C. In data set [1], this molecule gave a negative logarithm of the IC50 (pIC50) of 5.30 to 5.70.
With `Cc1ccnc(-n2c(-c3ccc(S(=O)(=O)N[C@@H](C)C(F)(F)F)cn3)c(C#N)c3cc(C(F)(F)F)cnc32)n1` [Cpd 355, 6-[3-cyano-1-(4-methylpyrimidin-2-yl)-5-(trifluoromethyl)-1H-pyrrolo[2,3-b]pyridin-2-yl]-N-[(2S)-1,1,1-trifluoropropan-2-yl]pyridine-3-sulfonamide], the melting point is 176 to 180 °C. The pIC50 in data set [1] is above 6.30.
For `C[C@H](NS(=O)(=O)c1ccc(-c2c(C(N)=O)c3cc(F)cnc3n2C2CCC2)nc1)C(F)(F)F` [Cpd 356, 1-cyclobutyl-5-fluoro-2-(5-{[(2S)-1,1,1-trifluoropropan-2-yl]sulfamoyl}pyridin-2-yl)-1H-pyrrolo[2,3-b]pyridine-3-carboxamide], in that order: 223 to 225 °C and above 6.30.
In turn, `COc1cnc2c(c1)c(C(N)=O)c(-c1ccc(S(=O)(=O)N[C@@H](C)C(F)(F)F)cn1)n2C1CCCC1` [Cpd 357, 1-cyclopentyl-5-methoxy-2-(5-{[(2S)-1,1,1-trifluoropropan-2-yl]sulfamoyl}pyridin-2-yl)-1H-pyrrolo[2,3-b]pyridine-3-carboxamide] displayed a melting point of 263 to 264 °C. In addition, the pIC50 in data set [1] was above 6.30.
In the same order, the values of `CSc1cnc2c(c1)c(C(N)=O)c(-c1ccc(NS(=O)(=O)C(C)C)cc1)n2C1CCCC1` [Cpd 358, 1-cyclopentyl-5-(methylsulfanyl)-2-{4-[(propan-2-ylsulfonyl)amino]phenyl}-1H-pyrrolo[2,3-b]pyridine-3-carboxamide] are 250 to 252 °C and above 6.30.
For `COc1cnc2c(c1)c(C(N)=O)c(-c1ccc(NS(=O)(=O)C(C)(C)C)cc1)n2C1CCCC1` [Cpd 359, 2-{4-[(tert-butylsulfonyl)amino]phenyl}-1-cyclopentyl-5-methoxy-1H-pyrrolo[2,3-b]pyridine-3-carboxamide], in that order: 269 to 272 °C and above 6.30.
`C[C@H](NS(=O)(=O)c1ccc(-c2c(C#N)c3cc(C(F)(F)F)cnc3n2C2CC2)nc1)C(F)(F)F` [Cpd 360, 6-[3-cyano-1-cyclopropyl-5-(trifluoromethyl)-1H-pyrrolo[2,3-b]pyridin-2-yl]-N-[(2S)-1,1,1-trifluoropropan-2-yl]pyridine-3-sulfonamide] had a melting point of 194 to 196 °C. In addition, the pIC50 in data set [1] is above 6.30.
For `C[C@H](NS(=O)(=O)c1ccc(-c2c(C#N)c3cc([S+](C)[O-])cnc3n2C2CCC2)nc1)C(F)(F)F` (stereo partly drawn) [Cpd 363, [3-cyano-1-cyclobutyl-2-(5-{[(2S)-1,1,1-trifluoropropan-2-yl]sulfamoyl}pyridin-2-yl)-1H-pyrrolo[2,3-b]pyridin-5-yl](methyl)sulfoniumolate], in that order: 257 to 258 °C and above 6.30.
For `CSc1cnc2c(c1)c(C#N)c(-c1ccc(S(=O)(=O)NC3(C(F)(F)F)CC3)cc1)n2C1CCC1` [Cpd 364, 4-[3-cyano-1-cyclobutyl-5-(methylsulfanyl)-1H-pyrrolo[2,3-b]pyridin-2-yl]-N-[1-(trifluoromethyl)cyclopropyl]benzenesulfonamide], in that order: 197 to 199 °C and above 6.30.
For `COc1cnc2c(c1)c(C#N)c(-c1ccc(S(=O)(=O)N[C@@H](C)C(F)(F)F)cn1)n2-c1cnccn1` [Cpd 365, 6-[3-cyano-5-methoxy-1-(pyrazin-2-yl)-1H-pyrrolo[2,3-b]pyridin-2-yl]-N-[(2S)-1,1,1-trifluoropropan-2-yl]pyridine-3-sulfonamide], in that order: 220 to 225 °C and above 6.30.
On to `Cc1cnc2c(c1)c(C#N)c(-c1ccc(S(=O)(=O)N[C@@H](C)C(F)(F)F)cn1)n2-c1ccncc1` [Cpd 368, 6-[3-cyano-5-methyl-1-(pyridin-4-yl)-1H-pyrrolo[2,3-b]pyridin-2-yl]-N-[(2S)-1,1,1-trifluoropropan-2-yl]pyridine-3-sulfonamide], for which the melting point is 243 to 245 °C. For the same molecule, in data set [1], the pIC50 is above 6.30.
For the molecule `CC(C)(C)NS(=O)(=O)c1ccc(-c2c(C#N)c3cc(Cl)cnc3n2C2CCC2)cc1` [Cpd 371, N-tert-butyl-4-(5-chloro-3-cyano-1-cyclobutyl-1H-pyrrolo[2,3-b]pyridin-2-yl)benzenesulfonamide], the melting point fell in the range of 244 to 246 °C. For the same molecule, in data set [1], the pIC50 is above 6.30.
Take `NC(=O)c1c(-c2ccc(S(=O)(=O)NC3(C(F)(F)F)CC3)cc2)n(C2CCC2)c2ncc(C3CC3)cc12` [Cpd 373, 1-cyclobutyl-5-cyclopropyl-2-(4-{[1-(trifluoromethyl)cyclopropyl]sulfamoyl}phenyl)-1H-pyrrolo[2,3-b]pyridine-3-carboxamide]: the melting point was 224 to 229 °C. Also, the negative-log IC50 (pIC50) in data set [1] is above 6.30.
